The subject of this assay is Colon cancer cells (Colo205 cell line). Description: Colo205 cell proliferation assay (MTT assay, WST-8 readout). Type of assay: cell-based. Particulars: Homo sapiens, COLO 205, 72 hours incubation, absorbance at 450 nm, read-out: Colo 205 cell growth inhibition IC50. As for the experimental part:
Compounds disclosed herein were tested for the inhibition of ERK2 by a Colo205 cell proliferation assay commonly known as MTT assay. In this assay, a complete media was prepared by adding 10% fetal bovine serum to RPMI-1640 medium (Life technology). Colon cancer cells (Colo205 cell line) were added to each of 88 wells of a 96 well plate at a seeding density of 5,000 cells/well/90 μL. The cells were allowed to attach to the plate by incubating at 37° C. for 24 hours. The compound was dissolved in DMSO (SIGMA). A solution of test compound was prepared in complete media by serial dilution to obtain the following concentrations: 500 μM, 150 μM, 50 μM, 15 μM, 5 μM, 1.5 μM, 0.5 μM, 0.15 μM and 0.05 μM. The test compound solution (10 μL) was added to each of 80 cell-containing wells. The final concentrations of the compound were following: 50 μM, 15 μM, 5 μM, 1.5 μM, 0.5 μM, 0.15 μM, 0.05 μM, 0.015 μM and 0.005 μM. The final concentration of DMSO is 0.5%. To the 8 remaining cell-containing wells, only complete media (containing 0.5% DMSO) was added to form a control group in order to measure maximal proliferation. To the remaining 8 empty wells, complete media was added to for a vehicle control group in order to measure background. The plates were incubated at 37° C. for 72 hours. 10 μL WST-8 solution (DOJINDO, Cell Counting KIT-8) was added to each well. The plates were further incubated at 37° C. for 2 hours, and then read for the absorbance using a microplate reader at 450 nm.

What is called IC50 is the point on the concentration scale where inhibition reaches its midpoint. In the case of `Cc1cc(-c2n[nH]c3ncc(C(=O)N[C@@H]4CN(C)C[C@H]4c4ccccc4C(F)(F)F)cc23)ccn1` (single isomer, unassigned) [Compound 14], the IC50 was 0.052 to 10 µM.

Consider `Cc1cc(-c2n[nH]c3sc(C(=O)NC(c4ccc(F)cc4)C(C)(C)O)cc23)ccn1` (centres unmarked) [Compound 55, N-(1-(4-fluorophenyl)-2-hydroxy-2-methylpropyl)-3-(2-methylpyridin-4-yl)-1H-thieno[2,3-c]pyrazole-5-carboxamide], for which the IC50 lay within 0.052 to 10 µM.

On to `Cc1cc(-c2n[nH]c3ncc(C(=O)N[C@H]4CN(C)C[C@@H]4c4ccc(F)cc4Cl)cc23)ccn1` (relative stereo) [Compound 28, trans-N-(-4-(2-chloro-4-fluorophenyl)-1-methylpyrrolidin-3-yl)-3-(2-methylpyridin-4-yl)-1H-pyrazolo[3,4-b]pyridine-5-carboxamide], for which the IC50 was 0.052 to 10 µM.

On to `Cc1cc(-c2n[nH]c3ncc(C(=O)N[C@@H]4C[C@H]4c4ccccc4)cc23)ccn1` (relative stereo) [Compound 36, trans-3-(2-methylpyridin-4-yl)-N-(2-phenylcyclopropyl)-1H-pyrazolo[3,4-b]pyridine-5-carboxamide], for which the IC50 lay in the range of 0.052 to 10 µM.

With `Cc1cc(-c2n[nH]c3ncc(C(=O)N[C@H]4CN(C)C[C@@H]4c4ccc(F)cc4F)cc23)ccn1` (relative stereo) [Compound 25, trans-N-(-4-(2,4-difluorophenyl)-1-methylpyrrolidin-3-yl)-3-(2-methylpyridin-4-yl)-1H-pyrazolo[3,4-b]pyridine-5-carboxamide], the IC50 lay within 0.052 to 10 µM.

For `Cc1cc(-c2n[nH]c3ncc(C(=O)N[C@@H]4CN(C)C[C@H]4c4ccccc4)cc23)ccn1` (relative stereo) [Compound 38, Trans-N-(1-methyl-4-phenylpyrrolidin-3-yl)-3-(2-methylpyridin-4-yl)-1H-pyrazolo[3,4-b]pyridine-5-carboxamide], the IC50 was in the range of 0.052 to 10 µM.

As to `Cc1cc(-c2n[nH]c3ncc(C(=O)N[C@H]4CN(S(C)(=O)=O)C[C@@H]4c4ccccc4C(F)(F)F)cc23)ccn1` (stereo in doubt) [Compound 20, 3-(2-methylpyridin-4-yl)-N-(-1-(methylsulfonyl)-4-(2-(trifluoromethyl)phenyl)pyrrolidin-3-yl)-1H-pyrazolo[3,4-b]pyridine-5-carboxamide], the IC50 lay in the range of 0.052 to 10 µM.

For `Cc1cc(-c2n[nH]c3ncc(C(=O)N[C@H]4CN(C)C[C@@H]4c4ccccc4C(F)(F)F)cc23)ccn1` (single isomer, unassigned) [Compound 15], the IC50 was in the range of 0.052 to 10 µM.

The record behind these values is US10696687B2, “Pyrazolo fused heterocyclic compounds as ERK inhibitors” (CHANGZHOU JIEKAI PHARMATECH CO., LTD., priority 2015, dated 2020).
